Our source for the EC50 values is BindingDB's records for doi:10.7270/Q2TX3CTT (Broad Institute, 2010).

Structures are written as SMILES.

Broadly, the EC50 is the concentration needed to bring the measured effect to its halfway point. Lower therefore signals a more potent agent.

In the experiment the target is Glycogen synthase kinase-3 beta (Homo sapiens, UniProt P49841). Put plainly: GSK3beta kinase inhibitor potency, dose response, biochemical, luminescence, cell-free homogeneous, retest (AID 434954).
Glycogen synthase kinase-3 beta, sequence (P49841 whole entry): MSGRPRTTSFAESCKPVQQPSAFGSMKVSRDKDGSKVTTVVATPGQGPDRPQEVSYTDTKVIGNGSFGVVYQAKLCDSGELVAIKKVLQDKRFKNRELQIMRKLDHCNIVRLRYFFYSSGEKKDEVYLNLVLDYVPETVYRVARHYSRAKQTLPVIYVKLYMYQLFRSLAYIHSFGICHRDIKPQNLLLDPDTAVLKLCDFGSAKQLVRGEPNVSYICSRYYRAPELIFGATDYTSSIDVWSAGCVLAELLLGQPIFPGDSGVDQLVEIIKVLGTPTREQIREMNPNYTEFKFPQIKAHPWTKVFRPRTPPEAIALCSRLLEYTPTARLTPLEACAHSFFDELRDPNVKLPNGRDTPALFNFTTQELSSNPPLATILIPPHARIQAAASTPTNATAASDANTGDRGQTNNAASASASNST
Regarding `O=Cc1cn(-c2ccccc2)nc1-c1ccc(F)cc1` [3-(4-fluorophenyl)-1-phenyl-1H-pyrazole-4-carbaldehyde], the EC50 is > 300 µM. In the case of `C=CCNc1nc(N)c([N+](=O)[O-])c(NC2CCCCC2)n1` [4-N-cyclohexyl-5-nitro-2-N-prop-2-enylpyrimidine-2,4,6-triamine] it was 5.45 µM; in that of `CCOC(=O)CNC(=O)CSc1ccc2nnc(-c3cccnc3)n2n1` [ethyl 2-[[2-[(3-pyridin-3-yl-[1,2,4]triazolo[4,3-b]pyridazin-6-yl)sulfanyl]acetyl]amino]acetate], > 300 µM.

For `CCn1c(SCC(=O)Nc2ccc(N(C)C)cc2)nnc1C1CC1` [SMR000601384], the EC50 was > 300 µM. For `CCN(CC)CCNC(=O)C(=O)Nc1ccc2c(c1)N(S(=O)(=O)c1cccs1)CCC2` [N-[2-(diethylamino)ethyl]-N'-(1-thiophen-2-ylsulfonyl-3,4-dihydro-2H-quinolin-7-yl)oxamide], the EC50 is > 300 µM.

For the compound `CN(Cc1c(C(=O)NN=Cc2cccc(F)c2)nnn1-c1nonc1N)c1ccccc1` [MLS001141039], the EC50 is 15.6 µM. With `CC(=NNC(=S)Nc1c(C)cccc1C)c1cc2ccccc2o1` [SMR000260555], the EC50 was > 300 µM. To `Cc1ccccc1C(=O)Nc1ccc(O)c2c(=O)cc(-c3ccccc3Cl)oc12` [MLS000518806] belongs > 300 µM. In the case of `O=C(Cc1ccc(Br)cc1)Nc1ncc([N+](=O)[O-])s1` [SMR000429978] it was 4.3 µM; in that of `O=C(NNC(=O)C1CC1)c1cc2cc3ccccc3nc2s1` [MLS000763570], > 300 µM.

For the compound `c1ccc(CSc2ccc3nnc(-c4ccccn4)n3n2)cc1`, the EC50 is > 300 µM.

On to `Nc1ncc(-c2ccccc2)c(-c2ccc(O)cc2O)n1`, for which the EC50 came out at 7.69 µM.

As to `COc1ccc(CN(CC(=O)NCc2ccccc2)C(=O)CCC(=O)Nc2nccs2)cc1`, the EC50 was > 300 µM.

In the case of `COc1ccc(-c2nn(-c3ccccc3)cc2C=O)cc1[N+](=O)[O-]` [MLS001163277], the EC50 was > 300 µM. For the compound `COc1cccc2cc(C(=O)OCc3ccccc3)c(=O)oc12` [(phenylmethyl) 8-methoxy-2-oxidanylidene-chromene-3-carboxylate], the EC50 was > 300 µM.

For the compound `COc1ccc(OC)c(NCc2nnc(-c3ccccc3)o2)c1` [MLS001208999], the EC50 is > 300 µM. In the case of `O=C(C(Cc1ccccc1)n1cccc1)N1CCN(c2cccc(Cl)c2)CC1` (stereo not drawn) [SMR000127921] it was > 300 µM; in that of `CC(C)N1CCc2c(sc(NC(=O)Cc3ccccc3)c2C(N)=O)C1`, > 300 µM; in that of `O=C(Nc1cccc2c1C(=O)NC2=O)c1cccnc1Cl` [N-[1,3-bis(oxidanylidene)isoindol-4-yl]-2-chloranyl-pyridine-3-carboxamide], > 300 µM. Take `O=C1N=C(NCc2ccccc2)SC1=Cc1ccccc1` [MLS000589841]: the EC50 is > 300 µM. In the case of `Cc1ccc2nc3c(cc2c1)c(NC(=O)c1ccccn1)nn3CC(C)C` it was > 300 µM.

As to `O=C(Nc1nc2ccc(Cl)cc2s1)C1CC1` [N-(6-chloranyl-1,3-benzothiazol-2-yl)cyclopropanecarboxamide], the 50% effective concentration (EC50) came to 43.8 µM. To `Cc1cc(C)c(C)c(S(=O)(=O)Nc2ccccc2C(=O)NCCCn2ccnc2)c1C` [MLS000055504] belongs > 300 µM; to `CC(=O)c1cccc(NC(=O)NN2CCN(C)CC2)c1` [1-(3-ethanoylphenyl)-3-(4-methylpiperazin-1-yl)urea], > 300 µM; to `CN1CCN(c2ccccc2NC(=O)c2ccc(Br)o2)CC1` [5-bromanyl-N-[2-(4-methylpiperazin-1-yl)phenyl]furan-2-carboxamide], 19.3 µM. To `CC(NCC1COc2ccccc2O1)C1COc2ccccc2O1` (stereo not drawn) belongs > 300 µM; to `Cc1cc(C(=O)c2ccccc2)c(NC(=O)CN2CCOCC2)s1` [N-[5-methyl-3-(phenylcarbonyl)thiophen-2-yl]-2-morpholin-4-yl-ethanamide], > 300 µM. In turn, `C=CCN=C(NC#N)SCC(=O)c1cccc(OC)c1` [[2-(3-methoxyphenyl)-2-oxidanylidene-ethyl] N-cyano-N'-prop-2-enyl-carbamimidothioate] yielded an EC50 of 1.23 µM. That is a single-digit micromolar value.

Turning to `COc1cccc2cc(C(=O)OC(C)C(=O)c3ccc(C)cc3)c(=O)oc12` (stereo not drawn), the EC50 was > 300 µM. To `CCOCCCn1c(=NC(C)=O)c(C#N)cc2c(=O)n3cccc(C)c3nc21` [SMR000436200] belongs > 300 µM; to `CCCC(NC(=O)Cc1c(C)c2c(cc(C)c3c(C)coc32)oc1=O)C(=O)O` (stereo not drawn) [2-[[2-(3,4,9-trimethyl-7-oxofuro[2,3-f]chromen-8-yl)acetyl]amino]pentanoic acid], > 300 µM. In the case of `c1ccc(CCCNCC2COc3ccccc3O2)cc1` (stereo not drawn) it was > 300 µM. For `Cc1nc(C)c(-c2csc(Nc3ccc(C(=O)O)c(O)c3)n2)s1` [4-[[4-(2,4-dimethyl-1,3-thiazol-5-yl)-1,3-thiazol-2-yl]amino]-2-hydroxybenzoic acid], the EC50 is > 300 µM. In the case of `COc1ccc(-c2cc(C(F)(F)F)nc(SCCC(=O)N3CCOCC3)n2)cc1` [3-[4-(4-methoxyphenyl)-6-(trifluoromethyl)pyrimidin-2-yl]sulfanyl-1-morpholin-4-ylpropan-1-one] it was > 300 µM. To `Nc1nc(NC2CCCCC2)nc(NCCO)c1[N+](=O)[O-]` [2-[[6-amino-2-(cyclohexylamino)-5-nitro-4-pyrimidinyl]amino]ethanol] belongs 2.16 µM. `Cc1cc(CN(C)C(=O)c2ccc(OC3CCN(CCc4ccccc4)CC3)cc2)on1` [MLS001100796]: the EC50 was > 300 µM. In the case of `COc1cc(SC)ccc1C(=O)OCC(=O)NCCNC(=O)COC(=O)c1ccc(SC)cc1OC` [MLS001129814] it was > 300 µM; in that of `COC(=O)c1nnn(-c2nonc2N)c1CSc1nnc(C)s1` [MLS000728193], 45.7 µM. In the case of `CC(Cl)C(=O)Nc1ncc(C(F)(F)F)cc1Cl` (stereo not drawn) [SMR000152526] it was > 300 µM. In the case of `COc1ccc(NC(=O)c2ccc(-c3ccc(OC)cc3)s2)cc1` [SMR000335035] it was > 300 µM. For the compound `CCCCCCCCCCCCC(=O)CCCCC(=O)O` [MLS001049131], the EC50 was > 300 µM. To `CC1CCCCN1c1ncnc2ccccc12` (stereo not drawn) [4-(2-Methyl-piperidin-1-yl)-quinazoline] belongs > 300 µM.

As to `COc1cc(C2c3c(n(Cc4ccccc4)c(=O)[nH]c3=O)N=C3CC(C)(C)CC(=O)C32)ccc1O` (stereo not drawn), the EC50 was > 300 µM. In the case of `CN(C)CC(=O)N1c2ccccc2Sc2ccc(Cl)cc21` it was > 300 µM; in that of `O=C(O)c1cccnc1-c1ncccc1C(=O)O`, > 300 µM; in that of `NS(=O)(=O)c1ccc(CCNC(=O)C(=O)c2cn(CC(=O)N3CCCC3)c3ccccc23)cc1` [MLS001235966], > 300 µM.

Turning to `CC1CCCC(C)N1C(=O)CN1C(=O)C(C)(C)Oc2ccc(C(=O)NC3CCCC3)cc21` (stereo not drawn), the EC50 is > 300 µM. In the case of `COc1cccc(C2CC(c3ccc(Cl)cc3)n3nc(N)nc3N2)c1` (stereo not drawn) [7-(4-chlorophenyl)-5-(3-methoxyphenyl)-1,5,6,7-tetrahydro-[1,2,4]triazolo[1,5-a]pyrimidin-2-amine] it was > 300 µM. Turning to `CCOc1ccccc1Nc1cc(C)nc2ccc(C)cc12` [SMR000473096], the EC50 was > 300 µM. In the case of `CCn1c(SCc2c(F)cccc2Cl)nnc1-c1ccco1` [3-[(2-chloro-6-fluorophenyl)methylsulfanyl]-4-ethyl-5-(furan-2-yl)-1,2,4-triazole] it was > 300 µM; in that of `CS(=O)(=O)c1ccc2nc(NC(=O)CN3CCN(Cc4ccccc4)CC3)sc2c1` [MLS000064538], > 300 µM; in that of `O=C(CN1C(=O)COc2ccccc21)Nc1ccccc1F` [MLS001205921], > 300 µM.

For the compound `C=CCNC(=O)c1ccc(OC)cc1` [4-methoxy-N-prop-2-enylbenzamide], the EC50 was > 300 µM. In the case of `CC[n+]1c(/C=C/N(C)c2ccccc2)oc2ccccc21` [SMR000184373] it was > 300 µM; in that of `Cc1ccc2nc3c(cc2c1)c(NC(=O)C(C)(C)C)nn3CC(C)C` [2,2-dimethyl-N-[6-methyl-1-(2-methylpropyl)pyrazolo[3,4-b]quinolin-3-yl]propanamide], > 300 µM. In the case of `Cc1ccc2c(c1)NC(c1cccs1)C1C(=O)CC(C)(C)CC1=N2` (stereo not drawn) [3,9,9-trimethyl-6-thiophen-2-yl-6,8,10,11-tetrahydro-5H-benzo[b][1,4]benzodiazepin-7-one] it was > 300 µM.

Consider `Cc1nc2sc(C(c3cccc(F)c3)N3CC(C)OC(C)C3)c(O)n2n1` (stereo not drawn), for which the EC50 is > 300 µM. To `Oc1cc(-c2c[nH]c3ccccc23)c(O)n1-c1ccccc1` [MLS000121758] belongs > 300 µM; to `CC(OC(=O)c1nsc(Cl)c1Cl)C(=O)NCc1ccco1` (stereo not drawn) [MLS000074009], > 100 µM. With `COc1ccc(-c2nn(-c3ccccc3)cc2C=NN=C(N)N)cc1OC` [SMR000261891], the EC50 was > 300 µM. In the case of `NS(=O)(=O)c1cccc(NC(=O)COC(=O)/C(=C/c2cccs2)c2cccs2)c1` [SMR000242820] it was > 300 µM; in that of `O=C1NCCCc2c1oc1cc(Br)c(O)c(Br)c21` [MLS000043345], 40.7 µM. In the case of `CCc1ccc(C2NC(=S)N=C3CC(C)(C)CC(=O)C32)cc1` (stereo not drawn) [MLS000720309] it was > 300 µM; in that of `N#Cc1ccc(CSc2nnc(-c3ccncc3)o2)cc1` [MLS000687325], 15.1 µM. To `COc1cccc2cc(C(=O)CS(=O)(=O)c3ccc(C(C)(C)C)cc3)c(=O)oc12` [3-[2-(4-tert-butylphenyl)sulfonyl-1-oxoethyl]-8-methoxy-1-benzopyran-2-one] belongs > 300 µM; to `COc1ccc(C(=O)ON=C(C)c2ccccc2)cc1` [SMR000159704], 20.9 µM; to `COc1ccc(CNC(=O)CN(Cc2ccccc2)C(=O)CCC(=O)Nc2nccs2)cc1` [N'-[2-[(4-methoxyphenyl)methylamino]-2-oxoethyl]-N'-(phenylmethyl)-N-(2-thiazolyl)butanediamide], 11.1 µM. `Cc1ccccc1CSc1nc2n(n1)C(c1cccs1)C1C(=O)CCCC1=N2` (stereo not drawn) [2-[(2-methylphenyl)methylsulfanyl]-9-thiophen-2-yl-5,6,7,9-tetrahydro-1H-[1,2,4]triazolo[5,1-b]quinazolin-8-one]: the concentration for a half-maximal effect (EC50) is > 300 µM.
